Among the data in paper PMC9103244, “Novel Hybrid 1,2,4- and 1,2,3-Triazoles Targeting Mycobacterium Tuberculosis Enoyl Acyl Carrier Protein Reductase (InhA): Design, Synthesis, and Molecular Docking” (International Journal of Molecular Sciences, 2022) are IC50, melting point and inhibition values, retold here.

Where two headings read alike, the source gives them in different places.

Data set [1] has as its target T1, M. tuberculosis InhA (Mycobacterium tuberculosis, UniProt P9WGR1).
T1 construct: made in house; host or cells: E. coli
Briefly: InhA enzymatic inhibition assay (NADH oxidation at 340 nm). The class given is biochemical. Particulars: for inhibition at 0.01 µM: compound at 10 nM, read-out: InhA enzyme inhibition percentage at 10 nM.

The target of data set [2] is mycobacterium tuberculosis InhA enzyme. Details: method as in doi:10.1016/j.molstruc.2020.129148. Particulars: literature lead structures; read-out: IC50 (InhA inhibitors, lead structures); cited from earlier work.
Setting [3] is: 70 nM InhA, 2 h pre-incubation, pH 6.8, 25 °C, 35 μM trans-2-decenoyl-CoA, 200 μM NADH, read-out: IC50, inhibitory effect against InhA.

T1 sequence (P9WGR1 whole entry, looked up): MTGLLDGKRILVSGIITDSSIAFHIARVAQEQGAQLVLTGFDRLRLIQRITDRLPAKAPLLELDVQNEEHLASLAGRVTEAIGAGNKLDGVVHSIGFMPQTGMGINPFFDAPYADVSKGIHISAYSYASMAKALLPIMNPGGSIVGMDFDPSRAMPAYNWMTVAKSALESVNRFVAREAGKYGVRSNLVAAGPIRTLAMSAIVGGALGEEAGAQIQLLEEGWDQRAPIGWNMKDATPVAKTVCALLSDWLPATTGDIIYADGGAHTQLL

In the case of `Sc1nnc(Cc2ccccc2)n1/N=C/c1cccs1` [4a, 5.-benzyl-4-((thiophen-2-ylmethylene)amino)-2,4-dihydro-3H-1,2,4-triazole-3-thione], the melting point – broadly, the temperature of the solid-liquid transition – is 184 to 186 °C. Further, the concentration for half-maximal inhibition (IC50) – broadly, the midpoint of a concentration-inhibition curve – in data set [1] (setting [3]) was 53.2 nM.

Regarding `Sc1nnc(Cc2ccccc2)n1/N=C/c1cccc2c1OCO2` [4b], the melting point was determined as 164 °C. For the same compound, the IC50 in data set [1] (setting [3]) was 9.16 nM.

Turning to `S=c1[nH]nc(Cc2ccccc2)n1/N=C/c1ccc(N2CCOCC2)cc1` [4c, (E)-5-benzyl-4-((4-morpholinobenzylidene)amino)-2,4-dihydro-3H-1,2,4-triazole-3-thione], in data set [1] (setting [3]), the IC50 is 8.16 nM.

For the compound `C#CCSc1nnc(Cc2ccccc2)n1/N=C/c1cccs1` [5a, (E)-N-(3-benzyl-5-(prop-2-yn-1-ylthio)-4H-1,2,4-triazol-4-yl)-1-(thiophen-2-yl)methanimine], the melting point stood at 98 °C. Further, the half-inhibitory concentration (IC50) in data set [1] (setting [3]) came out at 5.61 nM.

With `C#CCSc1nnc(Cc2ccccc2)n1/N=C/c1cccc2c1OCO2` [5b, (E)-1-(benzo[d][1,3]dioxol-4-yl)-N-(3-benzyl-5-(prop-2-yn-1-ylthio)-4H-1,2,4-triazol-4-yl)methanimine], the melting point turned out to be 140 °C. For the same compound, the half-inhibitory concentration (IC50) in data set [1] (setting [3]) was 0.66 nM. The inhibition (as a rule, the percentage by which the read-out fell short of the control) at 0.01 µM in data set [1] stood at 100%.

`C#CCSc1nnc(Cc2ccccc2)n1/N=C/c1ccc(N2CCOCC2)cc1` [5c] had a melting point of 236 °C. Besides, the half-inhibitory concentration (IC50) in data set [1] (setting [3]) stood at 0.23 nM. Also, the inhibition at 0.01 µM in data set [1] is 100%.

Take `O=C(O)c1ccc(-n2cc(CSc3nnc(Cc4ccccc4)n3/N=C/c3cccs3)nn2)cc1` [7a, (E)-4-(4-(((5-benzyl-4-((thiophen-2-ylmethylene)amino)-4H-1,2,4-triazol-3-yl)thio)methyl)-1H-1,2,3-triazol-1-yl)benzoic acid]: the melting point came to 196 °C. Further, the 50% inhibitory concentration (IC50) in data set [1] (setting [3]) worked out at 6.18 nM.

Compound `CC(=O)c1ccc(-n2cc(CSc3nnc(Cc4ccccc4)n3/N=C/c3cccs3)nn2)cc1` [7b] displayed a melting point of 196 °C. The compound also yielded a concentration for half-maximal inhibition (IC50) in data set [1] of 12.5 nM.

Compound `O=C(O)c1ccc(-n2cc(CSc3nnc(Cc4ccccc4)n3/N=C/c3cccc4c3OCO4)nn2)cc1` [7c, (E)-4-(4-(((4-((benzo[d][1,3]dioxol-4-ylmethylene)amino)-5-benzyl-4H-1,2,4-triazol-3-yl)thio)methyl)-1H-1,2,3-triazol-1-yl)benzoic acid] gave a melting point of 188 °C. In addition, in data set [1], the half-maximal inhibitory concentration (IC50) stood at 0.074 nM and the inhibition at 0.01 µM was 100%.

In the case of `CC(=O)c1ccc(-n2cc(CSc3nnc(Cc4ccccc4)n3/N=C/c3cccc4c3OCO4)nn2)cc1` [7d], the melting point is 196 °C. Moreover, the inhibition at 0.01 µM in data set [1] was 100%. Moreover, the half-maximal inhibitory concentration (IC50) in data set [1] (read-out: IC50, inhibitory effect against InhA, 70 nM InhA, 2 h pre-incubation, pH 6.8, 25 °C, 35 μM trans-2-decenoyl-CoA, 200 μM NADH) is 0.18 nM.

Take `O=C(O)c1ccc(-n2cc(CSc3nnc(Cc4ccccc4)n3/N=C/c3ccc(N4CCOCC4)cc3)nn2)cc1` [7e, (E)-4-(4-(((5-benzyl-4-((4-morpholinobenzylidene)amino)-4H-1,2,4-triazol-3-yl)thio)methyl)-1H-1,2,3-triazol-1-yl)benzoic acid]: the melting point stood at 192 °C. Moreover, in data set [1], the IC50 was 0.13 nM and the inhibition at 0.01 µM worked out at 100%.

In the case of `CC(=O)c1ccc(-n2cc(CSc3nnc(Cc4ccccc4)n3/N=C/c3ccc(N4CCOCC4)cc3)nn2)cc1` [7f], the melting point lay within 198 to 200 °C. Moreover, in data set [1] (setting [3]), the IC50 was 0.25 nM. Further, the inhibition at 0.01 µM in data set [1] came out at 100%.

For the compound `Cc1nc(C)n(CCCNc2ccc(C(=O)Nc3ccc(F)c(Oc4ccccc4)c3)cn2)n1` [Lead structure A], the half-maximal inhibitory concentration (IC50) in data set [2] is 906 nM.

Consider `CNC(=O)CN(Cc1ccc(F)cc1)C(=O)C[C@H]1CC[C@@H](NC(=O)c2nnn(Cc3ccccc3)c2C)CC1` [Lead structure B], for which the 50% inhibitory concentration (IC50) in data set [2] is 57 nM.
